According to US20110263817A1, “METAL-BINDING COMPOUNDS AND USES THEREFOR” (priority 1999, published 2011):
Residues, ends and D or L forms follow the SMILES beside them. No end group written: not given here.

Tests used:
[1] = system: human umbilical vein endothelial cells (HUVEC); test: Copper-induced IL-8 secretion from HUVEC (ELISA); assay type: cell-based; settings: 25 μM CuCl2, 24 hours; P<0.007
Method: Human umbilical vein endothelial cells (HUVEC) (5.0×10^4 cells) were incubated in serum-free and ascorbate-free endothelial cell basal medium-2 (EGM2) medium (BioWhittaker) with ITS supplement with (i) copper, (ii) a tetrapeptide analogue of the high-affinity, N-terminal Cu(II) binding site of human albumin (D-Asp D-Ala D-His D-Lys or d-DAHK), or (iii) both of them (n=3, in duplicate). IL-8 was determined by ELISA (see Example 13). […] Upon visual examination, all cells appeared to be viable at 24 hours.

[2] = Inhibition of hydroxyl radical production by peptides, Cu(II)/ascorbic acid deoxyribose/TBA assay, Example 16; assay type: biochemical
Method: The ability of the peptides listed in Table 14 to inhibit the generation of hydroxyl radicals was tested. Hydroxyl radicals were generated by mixing Cu(II) and ascorbic acid. When deoxyribose was added, the hydroxyl radicals, if present, attacked the deoxyribose to produce fragments. Heating the fragments at low pH produced malonaldehyde that, upon the addition of 2-thiobarbituric acid (TBA), yielded a pink chromogen which was measured spectrophotometrically at 532 nm. Thus, absorbance at 532 nm is a measure of the damage to deoxyribose and, therefore, of hydroxyl radical formation.
To perform the assay, (a) 50 μl of 200 μM CuCl2 in water, (b) water or enough of one of the test peptides in water (total volume of 150 μl) to give peptide:copper ratios of 1:4, 1:2, 1:1, 2:1, 4:1, 6:1 and 8:1, and (c) 525 μl buffer (20 mM KH2PO4 buffer, pH 7.4) were added to test tubes. The test tubes were incubated for 15 minutes at room temperature. Then, 25 μl of 20 mM ascorbic acid in buffer and 250 μl of 7.5 mM 2-deoxy-D-ribose in water were added to each test tube, and the test tubes were incubated for 1 hour at 37° C. Finally, 1 ml of 1% (w/v) TBA in 50 mM NaOH and 1 ml of glacial acetic acid were added to each test tube, and the test tubes were incubated in boiling water for 15 minutes. After the test tubes had cooled for 15 minutes, the absorbance at 532 nm was read. The results are presented in attached FIGS. 26A-V.

[3] = Inhibition of hydroxyl radical production, Cu(II)/ascorbic acid deoxyribose/TBA assay, Example 10; assay type: biochemical; settings: for formation of the pink chromogen: data not shown; for % Inhibition (decrease in absorbance compared to buffer alone): CuCl2 10 μM
Method: The ability of the compounds listed above to inhibit the generation of hydroxyl radicals was tested as described in Gutteridge and Wilkins, Biochim. Biophys. Acta, 759:38-41 (1983). Briefly, Cu(II) and ascorbic acid were mixed causing the generation of hydroxyl radicals. Then, deoxyribose was added, and the hydroxyl radicals, if present, attacked the deoxyribose to produce fragments. […]. Thus, absorbance at 532 nm is a measure of the damage to deoxyribose and, therefore, of hydroxyl radical formation.
To perform the assay, CuCl2 in buffer (20 mM KH2PO4 buffer, pH 7.4) and either one of the test compounds in buffer or buffer alone were added to test tubes (final concentration of CuCl2 was 10 μM). The test tubes were incubated for 15 minutes at room temperature. Then, 0.5 mM ascorbic acid in buffer and 1.9 mM 2-deoxy-D-ribose in buffer were added to each test tube, and the test tubes were incubated for 1 hour at 37° C. Finally, 1 ml of 1% (w/v) TBA in 50 mM NaOH and 1 ml of concentrated acetic acid were added to each test tube, and the test tubes were incubated in boiling water for 15 minutes. After the test tubes had cooled for 15 minutes, the absorbance at 532 nm was read.
Histidine and several peptides with histidine in different positions were tested at 1:1 and 2:1 peptide:copper ratios for their ability to inhibit the production of hydroxyl radicals. Also, a peptide having an acetylated aspartic acid (Ac-Asp) as the N-terminal amino acid was also tested. In Table 11, the % inhibition is the percent decrease in absorbance compared to buffer alone divided by the absorbance of the buffer alone.

[4] = Cu(II)/H2O2 hydroxyl radical generation, 2-deoxy-D-ribose degradation (TBA, 532 nm), Example 7; assay type: biochemical; settings: CuCl2 0.1 mM, H2O2 2.0 mM
Method: The ability of the L-tetrapeptide to inhibit the generation of ROS was tested as described in Gutteridge and Wilkins, Biochim. Biophys. Acta, 759, 38-41 (1983) and Cheeseman et al., Biochem. J., 252, 649-653 (1988). Briefly, Cu(II) and H2O2 were mixed causing the generation of hydroxyl radicals in a Fenton-type reaction. The hydroxyl radicals attack the sugar 2-deoxy-D-ribose (the sugar residue of DNA) to produce fragments. Heating the fragments at low pH produces malonaldehyde that, upon the addition of 2-thiobarbituric acid, yields a pink chromogen which can be measured spectrophotometrically at 532 nm. Thus, the absorbance at 532 nm is a measure of the damage to 2-deoxy-D-ribose.
The assay was performed with and without the L-tetrapeptide. […] Clearly, the L-tetrapeptide inhibited the degradation of 2-deoxy-D-ribose by hydroxyl radicals.

[5] = Passage through a model of the blood brain barrier; assay type: in vitro ADME
[6] = peptide:copper ratios of 2:1 or less
[7] = compound:copper 1:1, copper only control 0.954
[8] = compound:copper 2:1, copper only control 0.954
[9] = compound:copper 1:1, copper only control 0.767
[10] = compound:copper 2:1, copper only control 0.767

Compound: [Cl][Cu][Cl] [CuCl2]
- IL-8 secretion as compared to controls incubated with water [1]: > 5.5 fold higher

Compound: DAHGMTCARC (cysteine pairing not given here)
- inhibition of hydroxyl radical production [2, 6]: effectively inhibited hydroxyl radical production

Compound: Catalase
- formation of the pink chromogen ([3]; catalase 0-80 nM): prevent the formation of the pink chromogen
- formation of the pink chromogen ([3]; catalase with L-Asp L-Ala L-His L-Lys present at tetrapeptide/copper 1:1): prevents the formation of the pink chromogen

Compound: Ser Gly His
- inhibition of hydroxyl radical production [2, 6]: effectively inhibited hydroxyl radical production

Compound: L-Ala L-His L-Lys L-Ser L-Glu L-Val L-Ala L-His L-Arg L-Phe L-Lys (AHKSEVAHRFK; listed as Homo sapiens)
- % Inhibition (decrease in absorbance compared to buffer alone) ([3]; compound:copper 1:1): 11.6%
- Absorbance at 532 nm [3, 7]: 0.843
- % Inhibition (decrease in absorbance compared to buffer alone) ([3]; compound:copper 2:1): 95.1%
- Absorbance at 532 nm [3, 8]: 0.047

Compound: L-Asp L-Ala L-His L-Lys L-Ser L-Glu L-Val L-Ala L-His L-Arg L-Phe L-Lys (DAHKSEVAHRFK; listed as Homo sapiens)
- % Inhibition (decrease in absorbance compared to buffer alone) ([3]; compound:copper 1:1): 13.2%
- Absorbance at 532 nm [3, 9]: 0.645
- % Inhibition (decrease in absorbance compared to buffer alone) ([3]; compound:copper 2:1): 95.8%
- Absorbance at 532 nm [3, 10]: 0.040

Compound: Acetylated-L-Asp L-Ala L-His L-Lys L-Ser L-Glu L-Val L-Ala L-His L-Arg L-Phe L-Lys (Ac-DAHKSEVAHRFK; listed as Homo sapiens)
- % Inhibition (decrease in absorbance compared to buffer alone) ([3]; compound:copper 1:1): 16.9%
- Absorbance at 532 nm [3, 9]: 0.633
- % Inhibition (decrease in absorbance compared to buffer alone) ([3]; compound:copper 2:1): 27.5%
- Absorbance at 532 nm [3, 10]: 0.692

Compound: Thr Leu His
- inhibition of hydroxyl radical production [2, 6]: effectively inhibited hydroxyl radical production

Compound: Ala Ala His His (AAHH)
- inhibition of hydroxyl radical production ([2]; 1:4 peptide:copper ratio): complete inhibition
- inhibition of hydroxyl radical production [2, 6]: effectively inhibited hydroxyl radical production

Compound: DAHGMTCANC (cysteine pairing not given here)
- inhibition of hydroxyl radical production ([2]; 1:1 peptide:copper ratio): complete inhibition
- inhibition of hydroxyl radical production [2, 6]: effectively inhibited hydroxyl radical production

Compound: C[C@H](NC(=O)[C@@H](N)CC(=O)O)C(=O)N[C@@H](Cc1c[nH]cn1)C(=O)N[C@@H](CCCCN)C(=O)O [L-Asp L-Ala L-His L-Lys] (H-DAHK-OH)
- Percent Inhibition (degradation of 2-deoxy-D-ribose) ([4]; tetrapeptide 0.12 mM (Cu(II):tetrapeptide 1:1.2)): 38%
- Percent Inhibition (degradation of 2-deoxy-D-ribose) ([4]; tetrapeptide 0.2 mM (Cu(II):tetrapeptide 1:2)): 73%
- passage through a model of the blood brain barrier [5]: pass through a model of the blood brain barrier

Compound: Asp Ala His Lys-NH2 (DAHK-NH2)
- inhibition of hydroxyl radical production [2, 6]: effectively inhibited hydroxyl radical production

Compound: L-His L-Lys L-Ser L-Glu L-Val L-Ala L-His L-Arg L-Phe L-Lys (HKSEVAHRFK; listed as Homo sapiens) [His Lys Ser Glu Val Ala His Arg Phe Lys]
- % Inhibition (decrease in absorbance compared to buffer alone) ([3]; compound:copper 1:1): 24.9%
- Absorbance at 532 nm [3, 7]: 0.716
- % Inhibition (decrease in absorbance compared to buffer alone) ([3]; compound:copper 2:1): 46.6%
- Absorbance at 532 nm [3, 8]: 0.509
